Some results are limits rather than exact numbers.

In general, IC50 refers to the point on the concentration scale where inhibition reaches its midpoint. A higher IC50 goes with weaker potency in that assay.

This assay relates to HSV-1. Put plainly: HSV-1 infection of Vero 76 cells, HSV DNA hybridization capture assay. In kind it is cell-based, herpes simplex virus 1. Conditions: Human alphaherpesvirus 1; HSV-1 (MOI=0.001) in Vero 76 cells, 40–48 hours at 37° C., viral DNA by hybridization/chemiluminescence. On the procedure: Vero 76 cells were maintained in MEM with Earle's salts, L-glutamine, 8% FBS (Hyclone, A-1111-L) and 100 units/mL Penicillin-100 μg/mL Streptomycin. For assay conditions, FBS was reduced to 2%. Cells are seeded into 96-well tissue culture plates at a density of 5×10^4 cells/well after being incubated for 45 min at 37° C. in the presence of HSV-1 or HSV-2 (MOI=0.001). Test compounds are added to the wells and the plates are incubated at 37° C. for 40–48 hours. Cell lysates are prepared as follows: media was removed and replaced with 150 μL/well 0.2 N NaOH with 1% Igepal CA 630 or NP-40. Plates were incubated up to 14 days at room temperature in a humidified chamber to prevent evaporation.
For the detection probe, a gel-purified, digoxigenin-labeled, […] PCR fragment of the HSV UL-15 sequence was utilized. PCR conditions included 0.5 μM primers, 180 μM dTP, 20 μM dUTP-digoxigenin (Boehringer Mannheim 1558706), 200 μM each of dATP, dCTP, and dGTP, 1×PCR Buffer II (Perkin Elmer), 2.5 mM MgCl2, 0.025 units/μL of AmpliTaq Gold polymerase (Perkin Elmer), and 5 ng of gel-purified HSV DNA per 100 μL Extension conditions were 10 min at 95° C., followed by 30 cycles of 95° C. for 1 min, 55° C. for 30 sec, and 72° C. for 2 min. The amplification was completed with a 10-min incubation at 72° C. Primers were selected to amplify a 728 bp probe spanning a section of the HSV1 UL15 open reading frame (nucleotides 249–977). Single-stranded transcripts were purified with Promega M13 Wizard kits. The final product was mixed 1:1 with a mixture of 6 M GuSCN, 100 mM EDTA and 200 μg/mL herring sperm DNA and stored at 4° C.
The capture DNA plasmid (HSV UL13 region in pUC) was linearized by cutting with Xba I, denatured for 15 min at 95° C. and diluted immediately into Reacti-Bind DNA Coating Solution (Pierce, 17250, diluted 1:1 with TE buffer, pH 8) at 1 ng/μL 75 μL/well were added to Corning (#3922 or 9690) white 96-well plates and incubated at room temperature for at least 4 hrs before washing twice with 300 μL/well 0.2×SSC/0.05% Tween-20 (SSC/T buffer). The plates were then incubated overnight at room temperature with 150 μL/well 0.2 N NaOH, 1% IGEPAL and 10 μg/mL herring sperm DNA.
Twenty-seven (27) μL of cell lysate was combined with 45 μL of hybridization solution (final concentration: 3M GuSCN, 50 mM EDTA, 100 μg/ml salmon sperm DNA, 5× Denhardt's solution, 0.25×APE, and 5 ng of the digoxigenin-labeled detection probe). APE is 1.5 M NH4-acetate, 0.15 M ammonium phosphate monobasic, and 5 mM EDTA adjusted to pH 6.0. Mineral oil (50 μL) was added to prevent evaporation. The hybridization plates were incubated at 95° C. for 10 minutes to denature the DNA, then incubated at 42° C. overnight. The wells were washed 6× with 300 μL/well SSC/T buffer then incubated with 75 μL/well anti-digoxigenin-HRP-conjugated antibody (Boehringer Mannheim 1207733, 1:5000 in TE) for 30 min at room temperature. The wells were washed 6× with 300 μL/well with PBS/0.05% Tween-20 before 75 μL/well SuperSignal LBA substrate (Pierce) was added. The plates were incubated at room temperature for 30 minutes and chemiluminescence was measured in a Wallac Victor reader.
The following results were obtained for HSV-1.
For `CC(C)Cc1nn2ccccc2c1-c1ccnc([S+](C)[O-])n1` (stereo not drawn) [Example 6, 2-Isobutyl-3-[2-(methylsulfinyl)pyrimidin-4-yl]pyrazolo[1,5-a]pyridine], the half-maximal inhibitory concentration (IC50) came out at 24000 nM.
In turn, `CC(C)Cc1nn2c([S+](C)[O-])cccc2c1-c1ccnc(NC2CCCC2)n1` (stereo not drawn) [Example 9, N-Cyclopentyl-4-[2-isobutyl-7-(methylsulfinyl)pyrazolo[1,5-a]pyridin-3-yl]pyrimidin-2-amine] displayed a 50% inhibitory concentration (IC50) of 1900 nM.
As for `CC(C)NCCCc1nn2c(Cl)cccc2c1-c1ccnc(NC2CCCC2)n1` [Example 27, 4-{7-Chloro-2-[3-(isopropylamino)propyl]pyrazolo[1,5-a]pyridin-3-yl}-N-cyclopentyl-2-pyrimidinamine], the figure is 23000 nM; as for `c1cc(NC2CCCC2)n2nc(CCCN3CCCC3)c(-c3ccnc(NC4CCCC4)n3)c2c1` [Example 23, N-Cyclopentyl-3-[2-(cyclopentylamino)-4-pyrimidinyl]-2-[3-(1-pyrrolidinyl)propyl]pyrazolo[1,5-a]pyridin-7-amine], above 2500 nM.
In the case of `O=C(c1ccccc1)c1nn2c(NC3CCCC3)cccc2c1-c1ccnc(NC2CCCC2)n1` [Example 16, {7-(Cyclopentylamino)-3-[2-(cyclopentylamino)-4-pyrimidinyl]-pyrazolo[1,5-a]pyridin-2-yl}(phenyl)methanone], 400 nM corresponded to half-maximal inhibition (IC50).
`c1cc(NC2CCCC2)n2nc(C3CC3)c(-c3ccnc(NC4CCCC4)n3)c2c1` [Example 36, N-Cyclopentyl-3-[2-(cyclopentylamino)pyrimidin-4-yl]-2-cyclopropylpyrazolo[1,5-a]pyridin-7-amine]: 900 nM corresponded to half-maximal inhibition (IC50).
The same measure for `CCCc1nn2ccccc2c1-c1ccnc(NC2CCCC2)c1` [Example 2, N-Cyclopentyl-4-(2-propylpyrazolo[1,5-a]pyridin-3-yl)pyridin-2-amine]: 8000 nM; for `CSc1nccc(-c2c(CNC(C)C)nn3ccccc23)n1` [Example 24, N-({3-[2-(Methylsulfanyl)-4-pyrimidinyl]pyrazolo[1,5-a]pyridin-2-yl}methyl)-2-propanamine]: 2100 nM.
The same measure for `OC(c1ccccc1)c1nn2ccccc2c1-c1ccnc(NC2CCCC2)n1` (stereo not drawn) [Example 14, {3-[2-(Cyclopentylamino)-4-pyrimidinyl]pyrazolo[1,5-a]pyridin-2-yl}(phenyl)methanol]: 2500 nM.
Regarding `COCc1nn2c(NC3CCCC3)cccc2c1-c1ccnc(NC2CCCC2)n1` [Example 22, N-Cyclopentyl-3-[2-(cyclopentylamino)-4-pyrimidinyl]-2-(methoxymethyl)pyrazolo[1,5-a]pyridin-7-amine], the IC50 is 1200 nM.
As for `CC(C)NCCCc1nn2c(NC3CCCC3)cccc2c1-c1ccnc(NC2CCCC2)n1` [Example 28, N-Cyclopentyl-3-[2-(cyclopentylamino)-4-pyrimidinyl]-2-[3-(isopropylamino)propyl]pyrazolo[1,5-a]pyridin-7-amine], the figure is above 5000 nM.
The same measure for `COCCNc1cccc2c(-c3ccnc(NC4CCCC4)n3)c(COCCOC)nn12` [Example 30, 3-[2-(Cyclopentylamino)-4-pyrimidinyl]-2-[(2-methoxyethoxy)methyl]-N-(2-methoxyethyl)pyrazolo[1,5-a]pyridin-7-amine]: 4700 nM; for `CCCc1nn2c(NC3CCCC3)cccc2c1-c1ccnc(NC2CCCC2)c1` [Example 4, N-Cyclopentyl-3-[2-(cyclopentylamino)pyridin-4-yl]-2-propylpyrazolo[1,5-a]pyridin-7-amine]: 900 nM.
`CC(C)c1nn2c(NC3CCCC3)cccc2c1-c1ccnc(NC2CCCC2)n1` [Example 33, N-Cyclopentyl-3-[2-(cyclopentylamino)pyrimidin-4-yl]-2-isopropylpyrazolo[1,5-a]pyridin-7-amine] showed an IC50 of 2000 nM.
As for `CC(C)Cc1nn2ccccc2c1-c1ccnc(NC2CCCC2)n1` [Example 7, N-Cyclopentyl-4-(2-isobutylpyrazolo[1,5-a]pyridin-3-yl)pyrimidin-2-amine], the figure is 18000 nM.
